The source of these data is patent US20100285145A1, “GPR 119 MODULATORS” (PFIZER INC, priority 2009, published 2010).

The target of one experiment is T1, human GPR119 (Homo sapiens, UniProt Q8TDV5).
T1 sequence (Q8TDV5 1-335): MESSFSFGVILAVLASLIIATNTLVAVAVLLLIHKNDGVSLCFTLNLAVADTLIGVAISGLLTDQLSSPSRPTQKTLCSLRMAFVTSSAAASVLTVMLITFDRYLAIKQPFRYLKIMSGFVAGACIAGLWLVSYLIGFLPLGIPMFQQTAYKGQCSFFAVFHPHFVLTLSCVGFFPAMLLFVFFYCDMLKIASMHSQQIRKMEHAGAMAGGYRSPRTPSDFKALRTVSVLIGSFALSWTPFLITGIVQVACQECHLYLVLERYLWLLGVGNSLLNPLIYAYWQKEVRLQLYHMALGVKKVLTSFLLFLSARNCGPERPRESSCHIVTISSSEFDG
Description: β-Lactamase reporter functional assay (hGPR119 HEK293-CRE beta-lactamase cells). On the set-up: host or cells: HEK293-CRE beta-lactamase; Emax: dose or concentration left out as unconfirmed. As to conditions: for EC50: hGPR119 HEK293-CRE beta-lactamase cells, 16 h incubation, each line a separate determination, read-out: Human B-lactamase Functional EC50; for Intrinsic Activity (Human B-lactamase) / Emax: percent of maximal activity relative to standard GPR119 agonist at 10 micromolar; for Emax: read-out: Intrinsic Activity (Human B-lactamase). In kind it is cell-based. How it is done:
The assay for GPR119 agonists utilizes a cell-based (hGPR119 HEK293-CRE beta-lactamase) reporter construct where agonist activation of human GPR119 is coupled to beta-lactamase production via a cyclic AMP response element (CRE). GPR119 activity is then measured utilizing a FRET-enabled beta-lactamase substrate, CCF4-AM (Live Blazer FRET-B/G Loading kit, Invitrogen cat #K1027). Specifically, hGPR119-HEK-CRE-beta-lactamase cells (Invitrogen 2.5×10^7/mL) were removed from liquid nitrogen storage, and diluted in plating medium (Dulbecco's modified Eagle medium high glucose (DMEM; Gibco Cat # 11995-065), 10% heat inactivated fetal bovine serum (HIFBS; Sigma Cat # F4135), 1×MEM Nonessential amino acids (Gibco Cat # 15630-080), 25 mM HEPES pH 7.0 (Gibco Cat # 15630-080), 200 nM potassium clavulanate (Sigma Cat # P3494). The cell concentration was adjusted using cell plating medium and 50 microL of this cell suspension ([…]) was added into each well of a black, clear bottom, poly-d-lysine coated 384-well plate (Greiner Bio-One cat# 781946) and incubated at 37 degrees Celsius in a humidified environment containing 5% carbon dioxide. After 4 hours the plating medium was removed and replaced with 40 microL of assay medium (Assay medium is plating medium without potassium clavulanate and HIFBS). Varying concentrations of each compound to be tested was then added in a volume of 10 microL (final DMSO ≦0.5%) and the cells were incubated for 16 hours at 37 degrees Celsius in a humidified environment containing 5% carbon dioxide. Plates were removed from the incubator and allowed to equilibrate to room temperature for approximately 15 minutes. 10 microL of 6×CCF4/AM working dye solution (prepared according to instructions in the Live Blazer FRET-B/G Loading kit, Invitrogen cat #K1027) was added per well and incubated at room temperature for 2 hours in the dark. Fluorescence was measured on an EnVision fluorimetric plate reader, excitation 405 nm, emission 460 nm/535 nm. EC50 determinations were made from agonist-response curves analyzed with a curve fitting program using a 4-parameter logistic dose-response equation.

Experiment [1] has as its system male Wistar rats. In words: Intraperitoneal glucose tolerance test (IPGTT). To be noted: rat. It is filed as in vivo. The text has this: All in vivo protocols were approved by the Pfizer's Animal Welfare Committee. Naive male Wistar rats (225-250 g body weight on receipt) were obtained from Harlan Laboratories (Indianapolis, Ind.), were pair housed in hanging plastic caging on Sani-chips sawdust bedding, and fed ad libitum on Purina 5001 chow. The rats were housed under a controlled light cycle (light from 6 am to 6 pm) at controlled temperature and humidity conditions. Rats were acclimated to the facility for at least 1 week prior to study.
Rats were assigned (n=8/group) to vehicle or one of three dose groups ([…]) according to body weight on day −0.1 to ensure that each group had equal group mean body weight values. The rats were fasted overnight in clean cages overnight (˜15 hours) prior to the intra-peritoneal glucose tolerance test. Body weights were recorded on the morning of the study (post fasting) for dose volume calculation. Blood samples were collected from all rats prior to dosing with vehicle (0.5% methylcellulose) or test compound via oral gavage (5 mL/kg). Sixty minutes later rats were bled and immediately dose with an IP dose of glucose (2 g/kg). The rats were re-bled at 15, 30, 60 and 120 minutes post-glucose load. Blood samples (˜250 μL/time point) were collected into EDTA tubes with aprotinin/DPPIVi (0.6 TIU/20 μL per mL whole blood), for the determination of plasma glucose, insulin, and total amide GLP-1 concentrations. Blood tubes were inverted several times immediately following collection and placed on ice, then spun at 14,000 rpm in a refrigerated centrifuge for 5 minutes. Plasma samples were analyzed for glucose levels using a Roche 912 clinical chemistry analyzer and plasma insulin concentrations were determined using the Alpco Ultra-Sensitive Insulin Rat Elisa.
The results are presented as mean+/−SEM (standard error of the mean) unless otherwise stated. Statistical evaluation of the data is carried out using one-way analysis of variance (ANOVA) with appropriate post-hoc analysis between vehicle and treatment group. Differences compared to vehicle with a P<0.05 were considered statistically significant using Dunnett's T-test.
IPGTT studies were performed with Example 3, either prepared as described above (dosed as a suspension in 0.5% methylcellulose) or prepared as an amorphous dispersion (25% active) with hydroxyproylmethylcellulose-acetate succinate (dosed as a suspension in 0.5% methylcellulose/0.1% polysorbate 80). […] Statistical significance is based on a comparison to the vehicle group.

Experiment [2] has as its system male Wistar rats. In words: Intraperitoneal glucose tolerance test (IPGTT). As to conditions: rat, 20 mg/kg in 0.5% methylcellulose, IP glucose administered 30 minutes post dose. In kind it is in vivo.
Where [3] appears, read: 20 mg/kg SDD (amorphous dispersion 25% active with HPMC-acetate succinate).

The structures appear in SMILES notation. “And” between values parts separate entries of the source, which are not always exact repeats. Identical values can stand only once.

Take `CC(C)OC(=O)N1CCC(Oc2cc(N3CCc4cc(S(C)(=O)=O)ccc43)ncn2)CC1` [Example 3, Isopropyl 4-({6-[5-(methylsulfonyl)-2,3-dihydro-1H-indol-1-yl]pyrimidin-4-yl}oxy)piperidine-1-carboxylate]: on human GPR119, the EC50 was 12.6 nM and 29.7 nM and 13.8 nM and 12.3 nM. Further, the “Intrinsic Activity (Human B-lactamase)” value on human GPR119 was 102% and 81.8% and 93.4% and 107%. The “Glucose 0-120 min AUC (percent vehicle response)” value with male Wistar rats [1] (setting [3]) is “++89 percent vehicle response”; in the experiment on male Wistar rats [1] (20 mg/kg in 0.5% methylcellulose, IP glucose administered 30 minutes post dose) it was “++85 percent vehicle response”. Also, the results for the “Insulin AUC (0-60 min) (percent vehicle response)” value with male Wistar rats [1] (setting [3]) and in the experiment with male Wistar rats [2] were 118 percent vehicle response and 104 percent vehicle response, respectively.
In the case of `CC(C)OC(=O)N1CCC(Oc2cc(N3CCc4cc(C#N)ccc43)ncn2)CC1` [Example 10, Isopropyl 4-{[6-(5-cyano-2,3-dihydro-1H-indol-1-yl)pyrimidin-4-yl]oxy}piperidine-1-carboxylate], on human GPR119, the EC50 was 46.7 nM and 37.2 nM; the “Intrinsic Activity (Human B-lactamase)” value is reported as 85.8%; the Emax was determined as 90%.
As to `Cc1c(O[C@H]2CCN(C(=O)OC3(C)CC3)C[C@H]2F)ncnc1N1CCc2ncccc21` [Example 17, 1-Methylcyclopropyl (3R,4S)-4-{[6-(2,3-dihydro-1H-pyrrolo[3,2-b]pyridin-1-yl)-5-methylpyrimidin-4-yl]oxy}-3-fluoropiperidine-1-carboxylate], the entries for the “Insulin 0-60 min AUC (percent vehicle response)” value with male Wistar rats [1] (1 mg/kg oral) and in the experiment with male Wistar rats [1] (10 mg/kg oral) were 126 percent vehicle response and “++162 percent vehicle response”, respectively. For the same compound, the entries for the “Total Amide GLP-1 0-120 min AUC (percent vehicle response)” value with male Wistar rats [1] (1 mg/kg oral) and in the experiment with male Wistar rats [1] (10 mg/kg oral) were 235 percent vehicle response and 237 percent vehicle response, respectively. In addition, the “Glucose 0-120 min AUC (percent vehicle response)” value in the experiment on male Wistar rats [1] (1 mg/kg oral, 60 min before IP glucose 2 g/kg) was 88 percent vehicle response; with male Wistar rats [1] (10 mg/kg oral, 60 min before IP glucose 2 g/kg), “++69 percent vehicle response”.
Turning to `CC(C)OC(=O)N1CCC(Oc2cc(N3CCc4cc(C(=O)N(C)C)ccc43)ncn2)CC1` [Example 9, 4-[6-(5-Dimethylcarbamoyl-2,3-dihydroindol-1-yl)-pyrimidin-4-yloxy]-piperidine-1-carboxylic acid isopropyl ester], on human GPR119, the EC50 is 37.3 nM and 32.8 nM; the “Intrinsic Activity (Human B-lactamase)” value amounted to 101%; the Emax amounted to 100%.
`CC(C)OC(=O)N1CCC(Oc2cc(N3CCc4ncccc43)ncn2)CC1` [Example 12, Isopropyl 4-{[6-(2,3-dihydro-1H-pyrrolo[3,2-b]pyridin-1-yl)pyrimidin-4-yl]oxy}piperidine-1-carboxylate]: at human GPR119, the EC50 was 2100 nM and 2160 nM; the “Intrinsic Activity (Human B-lactamase)” value is recorded as 121%; the Emax turned out to be 110%.
On to `Cc1c(OC2CCN(C(=O)OC(C)C)CC2)ncnc1N1CCc2ncccc21` [Example 13, Isopropyl 4-{[6-(2,3-dihydro-1H-pyrrolo[3,2-b]pyridin-1-yl)-5-methylpyrimidin-4-yl]oxy}-piperidine-1-carboxylate], for which, on human GPR119, the 50% effective concentration (EC50) is 236 nM and 203 nM; the “Intrinsic Activity (Human B-lactamase)” value is recorded as 97.8%; the Emax was determined as 92.6%.
Turning to `CC(C)OC(=O)N1C[C@H]2COC[C@@H](C1)[C@H]2Oc1cc(N2CCc3cc(S(C)(=O)=O)ccc32)ncn1` [Example 1, Isopropyl 9-anti-({6-[5-(methylsulfonyl)-2,3-dihydro-1H-indol-1-yl]pyrimidin-4-yl}oxy)-3-oxa-7-azabicyclo[3.3.1]nonane-7-carboxylate], at human GPR119, the concentration giving a half-maximal response (EC50) is 75.9 nM and 72.3 nM; the “Intrinsic Activity (Human B-lactamase)” value was 109%; the Emax stood at 107%.
In the case of `Cc1c(OC2CCN(C(=O)OC(C)C)CC2)ncnc1N1CCc2cc(S(C)(=O)=O)ccc21` [Example 8, Isopropyl 4-({5-methyl-6-[5-(methylsulfonyl)-2,3-dihydro-1H-indol-1-yl]pyrimidin-4-yl}oxy)piperidine-1-carboxylate], at human GPR119, the concentration for a half-maximal effect (EC50) is 43.5 nM and 57.4 nM; the “Intrinsic Activity (Human B-lactamase)” value is 99.2%; the Emax amounted to 100%.
On to `CC(C)OC(=O)N1CCC(Oc2cc(N3CCc4cc(S(=O)(=O)CCO)ccc43)ncn2)CC1` [Example 11, Isopropyl 4-[(6-{5-[(2-hydroxyethyl)sulfonyl]-2,3-dihydro-1H-indol-1-yl}pyrimidin-4-yl)oxy]piperidine-1-carboxylate], for which, on human GPR119, the EC50 was 40.7 nM and the Emax is 103%.
As to `Cc1c(O[C@@H]2[C@@H]3COC[C@H]2CN(C(=O)OC(C)C)C3)ncnc1N1CCc2cc(S(C)(=O)=O)ccc21` [Example 23, Isopropyl (9-syn)-9-({5-methyl-6-[5-(methylsulfonyl)-2,3-dihydro-1H-indol-1-yl]pyrimidin-4-yl}oxy)-3-oxa-7-azabicyclo[3.3.1]nonane-7-carboxylate], the Emax on human GPR119 is 97.9%.
Turning to `CC(C)OC(=O)N1CCC(Oc2ncnc(N3CCc4cc(S(C)(=O)=O)ccc43)c2C#N)CC1` [Example 6, Isopropyl 4-({5-cyano-6-[5-(methylsulfonyl)-2,3-dihydro-1H-indol-1-yl]pyrimidin-4-yl}oxy)piperidine-1-carboxylate], on human GPR119, the EC50 was 7.8 nM and 6.45 nM; the “Intrinsic Activity (Human B-lactamase)” value was determined as 103%; the Emax was 99.9%.
On to `CC(C)(C)OC(=O)N1CCC(Oc2cc(N3CCc4cc(S(C)(=O)=O)ccc43)ncn2)C(F)C1` (racemic) [Example 15, tert-Butyl 3-fluoro-4-({6-[5-(methylsulfonyl)-2,3-dihydro-1H-indol-1-yl]pyrimidin-4-yl}oxy)piperidine-1-carboxylate], for which, at human GPR119, the half-maximal effective concentration (EC50) is 7.2 nM and 4.09 nM and 2.82 nM; the “Intrinsic Activity (Human B-lactamase)” value is 113% and 112%; the Emax stood at 107%.

Usually EC50 stands for the midpoint of the concentration-response curve.
